Test results taken from PMC3766423 (Cancer research, 2013).

Molecular target: WRN helicase (Werner syndrome protein) (Homo sapiens, UniProt Q14191)
Assay: in vitro WRN helicase
Type: biochemical

Sequence of WRN helicase (Werner syndrome protein) (Q14191 2-1432): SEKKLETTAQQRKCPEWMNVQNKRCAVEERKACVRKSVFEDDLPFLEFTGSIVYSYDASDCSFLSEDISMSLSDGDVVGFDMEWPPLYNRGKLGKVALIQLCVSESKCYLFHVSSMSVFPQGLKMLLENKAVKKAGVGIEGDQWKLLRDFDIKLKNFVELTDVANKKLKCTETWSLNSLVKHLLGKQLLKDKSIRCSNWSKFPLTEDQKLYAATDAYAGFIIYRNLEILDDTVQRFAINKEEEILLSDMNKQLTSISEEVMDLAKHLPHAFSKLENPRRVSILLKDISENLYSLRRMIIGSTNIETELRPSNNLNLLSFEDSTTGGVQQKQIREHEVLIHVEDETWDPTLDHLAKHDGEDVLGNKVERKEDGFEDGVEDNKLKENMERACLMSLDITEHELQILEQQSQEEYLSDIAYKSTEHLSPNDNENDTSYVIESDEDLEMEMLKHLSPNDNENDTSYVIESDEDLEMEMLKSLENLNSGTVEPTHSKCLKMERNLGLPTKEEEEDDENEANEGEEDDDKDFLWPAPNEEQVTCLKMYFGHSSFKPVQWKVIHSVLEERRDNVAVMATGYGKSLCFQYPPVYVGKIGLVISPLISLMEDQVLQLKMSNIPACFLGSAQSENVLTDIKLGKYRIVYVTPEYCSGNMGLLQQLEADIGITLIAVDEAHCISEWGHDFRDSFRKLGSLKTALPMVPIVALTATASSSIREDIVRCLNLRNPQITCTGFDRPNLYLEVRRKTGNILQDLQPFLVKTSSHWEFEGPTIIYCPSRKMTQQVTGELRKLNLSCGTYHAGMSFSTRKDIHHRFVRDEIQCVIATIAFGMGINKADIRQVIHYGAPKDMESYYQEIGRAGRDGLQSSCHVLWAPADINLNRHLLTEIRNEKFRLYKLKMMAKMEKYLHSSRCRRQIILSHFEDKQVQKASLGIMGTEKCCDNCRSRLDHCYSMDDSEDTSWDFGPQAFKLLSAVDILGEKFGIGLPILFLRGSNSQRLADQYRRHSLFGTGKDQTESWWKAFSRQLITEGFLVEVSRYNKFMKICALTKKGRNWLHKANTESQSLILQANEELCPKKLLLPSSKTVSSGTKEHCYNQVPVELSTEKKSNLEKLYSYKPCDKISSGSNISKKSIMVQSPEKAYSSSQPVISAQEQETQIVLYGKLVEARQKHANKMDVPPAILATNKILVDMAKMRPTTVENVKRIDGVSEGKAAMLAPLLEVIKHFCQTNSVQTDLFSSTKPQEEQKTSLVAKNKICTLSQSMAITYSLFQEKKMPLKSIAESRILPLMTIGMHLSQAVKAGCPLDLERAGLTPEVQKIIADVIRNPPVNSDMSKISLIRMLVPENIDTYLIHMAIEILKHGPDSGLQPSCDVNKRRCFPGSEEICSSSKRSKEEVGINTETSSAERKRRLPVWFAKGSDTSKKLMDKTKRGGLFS

CC(C)(CN1C(=O)C(Cl)=C(Cl)C1=O)CN1C(=O)C(Cl)=C(Cl)C1=O [NSC 617145]
IC50: 230 nM
